Results on two compounds are retold here after patent US11173144B2, “Adrenergic receptor modulating compounds and methods of using the same” (The Board of Trustees of the Leland Stanford Junior …, priority 2016, dated 2021).

Series [1] deals with heart rate and blood pressure. Briefly: Cardiovascular studies (heart rate and blood pressure) in anesthetized rats. Particulars: 3 mg/kg subcutaneous. It counts as in vivo, Sprague-Dawley rats. The protocol:
Adult rats are anesthetizes using isoflurane and are accommodated on a heated platform warmed to 36° C. A jugular catheter (for IV administration of the drug) and an intra-arterial catheter (tail artery, for blood pressure measurements) are implanted under 2.5% isoflurane. To avoid clotting, all animals received a single dose of heparin after intravenous cannulation. Intra-arterial catheter was then connected to a pressure transducer coupled to a computerized data acquisition system (PowerLab) and its application software (LabChart 8)[AD Instruments (Australia)]. Mean blood pressure and the hear rate was analyzed and plotted using prism software.
Briefly, rats are anesthetized with 3-4% isoflurance and 1 cm longitudinal incision is made on the ventral aspect of the tail exposing the tail artery. Polyethylene catheter (PE50) filled with heparinized saline is then inserted into the tail artery and connected to blood pressure transducer system. After assuring absence of any air bubbles, 5-10 min of baseline systolic and diastolic blood pressure along with heart rate are recorded using LabChart Pro (AD Instruments).
FIG. 9 illustrates the effect of exemplary compounds on average heart rate in a rat in comparison with reference compounds isoprenaline and ICI 118,551. FIG. 10 illustrates the effect of exemplary compounds on blood pressure in a rat in comparison with reference compounds isoprenaline and ICI 118,551.

Series [2] can be described thus: Pharmacokinetic study, 4 hour time course. It counts as in vivo, Sprague-Dawley rats. Particulars: rat; for AUC(0-inf) / Cmax / bioavailability: Sprague-Dawley, 10 mg/kg; for AUC(0-inf): AUCinf. On the procedure: Two cohorts of Sprague-Dawley rats are used in two independent studies. All animals are fasted overnight before the experiment with free access to water. In study 1, a total of 18 rats are used for a 4 h time course pharmacokinetic (PK) study. […] On the day of the experiment, xamoterol is freshly prepared in saline. […] Four hours post-dose, rats are deeply anesthetized with isoflurane and blood samples are collected by cardiac puncture. In study 2, a total of 18 rats are used for a 20 min post-dose collection study. […] At 20 min post-dose, rats are deeply anesthetized with isoflurane and blood samples are collected by cardiac puncture. Brains are collected after perfusion with phosphate buffered saline. […] LC separation is carried out on a Phenomenex Synergi Polar-RP column (2.5 μm, 2 mm×50 mm) with a flow rate of 0.25 ml/min at room temperature. Mobile phase A consisted of 10 mM ammonium acetate and 0.1% formic acid in LCMS grade water. Mobile phase B consisted of 10 mM ammonium acetate and 0.1% formic acid in LCMS grade acetonitrile: water 90:10% (v/v). […] Five μl of the extracted samples is injected. The mass spectrometer is operated in the positive mode with multiple-reaction monitoring (MRM) with the transition m/z 334.1→210.1 and 334.1→100.2.

The subject of series [3] is LPS-induced TNF-α response. Briefly: In vivo LPS assay. Particulars: mice, 3 mg/kg 15 min prior to LPS, 90 min post-LPS. Further details: species or system C57BI/6J mice. The protocol:
Amplification is performed using StepOnePlus (Applied Biosystems).
Following injections, mice are single-housed. At 90 min post-LPS/saline, mice are deeply anesthetized with isoflurane and blood is collected from the right ventricle via cardiac puncture (23 g needle) into lithium heparin-containing vials (BD microtainer plasma tubes). Plasma is separated by centrifugation (11,000 rpm for 3 minutes) within 30 min of collection and stored at −80° C. until analysis. The concentration of TNF-α in the collected plasma is measured by ELISA (Invitrogen, KMC3012) according to the manufacturer's instruction.

A further series has as its target α1A adrenergic receptor (Homo sapiens (Human), UniProt P35348). As to the kind of experiment: CNS target panel screen: α1A adrenergic receptor. The format is binding. The text has this:
(§1) From a drug development perspective, characterizing the off-target effects of lead compounds is an important issue, as interactions with off-target molecules may lead to undesirable side effects. Thus we screened xamoterol (S) and the key compound compound 43 against a panel of CNS relevant targets, including G-protein coupled receptor and transporters. […].

The next series addresses 5-HT1A (Homo sapiens (Human), UniProt P08908). Briefly: CNS target panel screen: 5-HT1A. The format is binding.
Text: as §1

The target of a further series is ADRB1 (Homo sapiens (Human), UniProt P08588). Briefly: β-arrestin assay (PathHunter enzyme fragment complementation, CHO-K1-ADRB1 cells). Particulars: Table 4. The format is cell-based. The protocol: Pharmacological activity of compounds in the β-arrestin pathway mediated by ADRB1 are evaluated using an enzyme fragment complementation method with a β-galactosidase functional reporter. An engineered CHO-K1-ADRB1 PathHunter cell line (DiscoveRx) is used in the assay. In this cell line, enzyme acceptor (β-galactosidase fragment) is fused to β-arrestin and enzyme donor (β-galactosidase fragment) is fused to the ADRB1. Thus, activation of the ADRB1 stimulates binding of β-arrestin to the ProLink-tagged ADRB1 and forces complementation of the two enzyme fragments, resulting in the formation of an active β-galactosidase enzyme. Briefly, CHO-K1-ADRB1 PathHunter cell lines are plated in a total volume of 20 μL cell plating reagent (DiscoveRx, 93-0563R0A) at a density of 2,500 cells/well into 384 well microplates and incubated overnight at 37° C. in 5% CO2. […] Chemiluminescent signal is then read with a PerkinElmer Envision™ instrument. The results are expressed as a percent of the maximum efficacy achieved with isoproterenol.
Chain of ADRB1 (P08588 whole entry, the tested form may be a part): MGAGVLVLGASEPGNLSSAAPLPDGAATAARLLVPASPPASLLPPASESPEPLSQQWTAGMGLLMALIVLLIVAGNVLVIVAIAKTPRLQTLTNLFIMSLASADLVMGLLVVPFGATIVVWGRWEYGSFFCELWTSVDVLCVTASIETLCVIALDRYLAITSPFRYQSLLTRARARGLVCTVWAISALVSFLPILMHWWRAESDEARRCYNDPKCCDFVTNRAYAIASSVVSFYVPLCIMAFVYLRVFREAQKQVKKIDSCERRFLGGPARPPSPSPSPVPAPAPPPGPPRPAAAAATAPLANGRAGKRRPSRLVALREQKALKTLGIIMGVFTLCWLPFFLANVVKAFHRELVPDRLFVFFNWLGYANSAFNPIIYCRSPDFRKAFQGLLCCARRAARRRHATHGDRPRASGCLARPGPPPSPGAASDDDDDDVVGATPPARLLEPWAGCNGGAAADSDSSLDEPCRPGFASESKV
Effects of compounds on β-arrestin signaling pathways are determined using CHO cells stably expressing human β1-adrenergic receptors or human β2-adrenergic receptors with PathHunter® β-Arrestin GPCR assay system (DiscoveRx). In this system, adrenergic receptor is fused in frame with the small enzyme fragment ProLink™ and co-expressed in cell stably expressing at fusion protein of β-arrestin and the larger, N-terminal deletion mutant of β-galactosidase enzyme. Activation of the adrenergic receptor stimulates binding of β-arrestin to the ProLink-tagged receptor and forces complementation of the two enzyme fragments, resulting in the formation of an active β-gal enzyme. This interaction leads to an increase in enzyme activity that can be measured using chemiluminescent detection reagents. The effects of compounds on β-arrestin signaling pathways are determined 90 minutes after incubating the cells with the test compounds.

Read-outs that look alike come from different tables or passages of the source.

Chain of 5-HT1A (P08908 whole entry, species assumed): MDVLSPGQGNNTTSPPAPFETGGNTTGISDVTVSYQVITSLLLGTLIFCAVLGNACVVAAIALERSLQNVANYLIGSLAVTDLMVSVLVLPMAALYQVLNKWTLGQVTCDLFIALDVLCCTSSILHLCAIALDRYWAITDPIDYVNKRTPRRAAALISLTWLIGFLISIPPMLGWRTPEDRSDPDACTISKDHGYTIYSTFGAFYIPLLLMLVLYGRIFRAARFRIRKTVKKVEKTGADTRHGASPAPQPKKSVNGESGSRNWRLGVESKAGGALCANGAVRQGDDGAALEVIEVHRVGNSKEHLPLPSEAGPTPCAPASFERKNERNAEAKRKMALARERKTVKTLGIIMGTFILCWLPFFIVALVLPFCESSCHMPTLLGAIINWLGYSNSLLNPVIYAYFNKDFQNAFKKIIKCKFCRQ
Chain of α1A adrenergic receptor (P35348 whole entry): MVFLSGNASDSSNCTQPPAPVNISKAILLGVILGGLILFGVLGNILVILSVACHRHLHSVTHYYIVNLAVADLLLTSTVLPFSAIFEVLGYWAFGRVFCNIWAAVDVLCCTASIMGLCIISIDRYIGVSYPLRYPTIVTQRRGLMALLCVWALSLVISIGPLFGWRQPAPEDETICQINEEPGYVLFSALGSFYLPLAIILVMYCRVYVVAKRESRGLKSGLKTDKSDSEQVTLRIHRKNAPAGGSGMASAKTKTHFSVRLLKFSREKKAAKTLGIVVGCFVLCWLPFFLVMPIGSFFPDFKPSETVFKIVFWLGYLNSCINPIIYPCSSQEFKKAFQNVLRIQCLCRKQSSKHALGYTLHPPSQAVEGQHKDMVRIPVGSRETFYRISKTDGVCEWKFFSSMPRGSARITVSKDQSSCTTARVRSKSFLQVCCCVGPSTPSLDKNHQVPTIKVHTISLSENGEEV

Consider `O=C(NCCNCC(O)COc1ccc(O)cc1)N1CCOCC1` (stereo not shown) [Xamoterol, reference compound], for which the “effect on blood pressure” value in series [1] was “significant reduction”. For the same compound, the “effect on heart rate” value in series [1] was “did not produce significant effects”. Further, the AUC(0-inf) in series [2] (in vivo, ip) is 2830 ± 517 ng·h/mL; in series [2] (in vivo, iv), 2450 ± 601 ng·h/mL. In addition, the Cmax in series [2] (in vivo, ip, Cmax) was 7440 ± 730 ng/mL; in series [2] (in vivo, iv, Cmax), 22200 ± 4030 ng/mL. Besides, in series [2] (in vivo, po), the bioavailability was determined as 1.7%. For the same compound, the clearance entry in series [2] (in vivo) is on record as “cleared rapidly”.
For the compound `COc1ccccc1OCCNC[C@H](O)COc1ccc(O)cc1` [Compound 43], the “LPS-induced TNF-α response in periphery (plasma)” value in series [3] is “markedly inhibited”. Besides, the “LPS-induced inflammatory response in the brain (TNF-α, IL-1β, IL-6 gene expression)” value in series [3] was “attenuated”. Also, the “affinity for α1A adrenergic receptor” value at α1A adrenergic receptor is “significant affinity”. Further, the “affinity for 5-HT1A” value at 5-HT1A is listed as “significant affinity”. In series [1], the “effect on blood pressure” value is on record as “significant reduction”. The “effect on heart rate” value in series [1] is reported as “did not produce significant effects”. Further, the “β-arrestin pathway % Iso max” value at ADRB1 (percent efficacy compared to the maximum response achieved with isoproterenol) is 18.3%. For the same compound, on ADRB1 (read-out: β-arrestin pathway ADRB1 EC50), the EC50 fell in the range of 10 to 100 nM. Also, the AUC(0-inf) was determined as 2160 ± 310 ng·h/mL in series [2] (in vivo, ip) and 1800 ± 256 ng·h/mL in series [2] (in vivo, iv). The Cmax was found to be 762 ± 67 ng/mL in series [2] (in vivo, ip, Cmax); 4000 ± 1110 ng/mL in series [2] (in vivo, iv, Cmax); 946 ng/mL in series [2] (in vivo, po, 10 mg/kg PO - Portal vein, read-out: Cmax); 116 ng/mL in series [2] (in vivo, po, 10 mg/kg PO - Systemic (jugular vein), read-out: Cmax). Also, the bioavailability in series [2] (in vivo, po) amounted to 6%. For the same compound, the “time of maximum concentration in systemic plasma” value in series [2] (10 mg/kg IP) turned out to be 90 min. Also, the clearance entry in series [2] (4 hour time-course PK study) is given as “cleared more slowly”.

The AUC(0-inf) is total exposure, with the tail of the curve extrapolated. Broadly, the Cmax is the peak of the concentration-time curve. The bioavailability is dose-corrected exposure relative to a reference, in per cent. By EC50 is commonly meant the midpoint of the concentration-response curve.
